The text below walks through data of US20120214846A1, “HEXAHYDROCYCLOPENTYL[F]INDAZOLE PYRIDYL ETHANOLS AND DERIVATIVES THEREOF AS SELECTIVE GLUCOCORTICOID RECEPTOR MODULATORS” (MERCK SHARP & DOHME CORP, priority 2009, published 2012).

Structures are written as SMILES.

The nature of data set [1]: Solubility at pH 2. The following applies: Table 4, literature compounds. In kind it is physicochemical.
The subject of data set [2] is female Sprague-Dawley rats, oxazolone (OX) contact dermatitis. Briefly: In Vivo Inflammation Assay (oxazolone contact dermatitis model). Also noted: key to Inflammation Assay Glucose Effect / GL *: +: the glucose level increased compared to vehicle; −: the glucose level decreased compared to vehicle. The following applies: Table 4, literature compounds. As to the method:
In Vivo Inflammation Assay
Intact adult (6 month old) female Sprague-Dawley rats are used in the oxazolone (OX) contactdermatitis model. Rats were sensitized on the ventral abdomen with OX on Day 0. On Days 7 and 9, a randomly-selected ear was challenged (same ear each time) with OX; the other was treated with vehicle. Daily treatment begun on Day 7 and continued for 7d with test compounds at different doses and 1.3 mpk 6-methlyprednisolone or 0.1 mpk DEX as positive controls. The thickness of both ears are measured on Days 11 and 14. Necropsy occurred on Day 14. The rat is first weighed, then anesthetized in a CO2 chamber until near death. Approximately 5 ml whole blood is obtained by cardiac puncture. The rat is then examined for certain signs of death and completeness. Tissues are dissected in a highly stylized fashion. Then the following endpoints were evaluated: a) inhibiting ear inflammation induced by oxazalone, b) raising serum insulin, c) reducing serum ACTH, d) reducing spleen weight, e) reducing skin thickness, f) reducing body weight, g) increasing expression of bone-related genes with potential relationship to negative glucocorticoid effects on bone; e) changes in molecular markers that correlate with skin inflammation, skin thinning, muscle atrophy and glucose metabolism in liver. All blood samples were collected between 1330-1530 hours, ˜4-5 hrs after the last compound treatment.
Primary data for this assay are left and right ear thickness. Inter-ear thickness difference (etd) is used for the estimating the level of inflammation and effectiveness of the compounds is determined by their ability to reduce the increase the thickness of the inflamed ear. Back of the rat skin thickness, spleen weight, serum insulin as well as the effects of gcs on the expression of molecular markers in skin inflammation, skin atrophy, muscle atrophy and glucose metabolism in liver are measured. Data are analyzed by anova plus fisher plsd post-hoc test to identify intergroup differences.

Consider `C[C@]12Cc3cnn(-c4ccc(F)cc4)c3C=C1CCC[C@@H]2[C@@H](O)c1ccc(F)cc1` [Ex. 32 WO 03/086294 A2, reference compound], for which the solubility entry in data set [1] is “poor”. In data set [2] (anti-inflammatory effect), the “AI*” value was “+ (the anti-inflammatory activity was equal to or greater than 40% of the effect generated by the control compound)”. Moreover, the “GL *” value in data set [2] (glucose effect) is reported as “+”.
